# Source: patent publication US12129237B2, “Substituted diaminocarboxamide and diaminocarbonitrile pyrimidines, compositions thereof, and methods of treatment therewith” (SIGNAL PHARMACEUTICALS, LLC, priority 2011, dated 2024)
# Molecular target: T1, JNK1 (Homo sapiens, UniProt P45983)
# T1 construct: purchased Carna Biosciences
# Test: JNK1 biochemical assays (one or more of: time resolved fluorescence, Z'-LYTE Cascade, radioactive)
# Details: Table 2; JNK1 IC50 activity level; read-out: Act. Level
# T1 sequence (P45983 whole entry): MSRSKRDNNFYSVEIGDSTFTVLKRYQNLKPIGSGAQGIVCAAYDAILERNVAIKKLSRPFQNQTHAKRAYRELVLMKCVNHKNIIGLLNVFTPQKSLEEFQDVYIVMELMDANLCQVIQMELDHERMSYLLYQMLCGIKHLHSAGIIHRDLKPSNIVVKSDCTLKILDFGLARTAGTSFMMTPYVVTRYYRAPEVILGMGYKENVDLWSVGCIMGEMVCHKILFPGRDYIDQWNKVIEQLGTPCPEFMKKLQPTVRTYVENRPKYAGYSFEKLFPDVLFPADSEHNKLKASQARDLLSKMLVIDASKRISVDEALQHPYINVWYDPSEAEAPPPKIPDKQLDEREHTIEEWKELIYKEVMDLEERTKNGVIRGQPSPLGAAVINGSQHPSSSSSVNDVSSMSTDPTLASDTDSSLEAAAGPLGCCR
row,IC50,SMILES
1,< 200 nM,"NC(=O)c1cnc(N[C@H]2CCc3ncccc3C2)nc1N[C@@H]1CCCC[C@H](O)C1 [Example B-97, 4-((1R,3S)-3-hydroxycycloheptylamino)-2-((S)-5,6,7,8-tetrahydroquinolin-6-ylamino)pyrimidine-5-carboxamide]"
2,200 to 800 nM,"NC(=O)c1cnc(NCc2ccc(F)cc2F)nc1Nc1ccccc1 [Example B-57, 2-(2,4-difluorobenzylamino)-4-(phenylamino)pyrimidine-5-carboxamide]"
3,800 to 1000 nM,"NC(=O)c1cnc(N[C@H]2CCOc3ccccc32)nc1N[C@@H]1CCC[C@H](O)C1 [Example B-78, 2-((S)-chroman-4-ylamino)-4-((1R,3S)-3-hydroxycyclohexylamino)pyrimidine-5-carboxamide]"
4,800 to 1000 nM,"NC(=O)c1cnc(N[C@H]2CCc3ccccc3C2)nc1N[C@@H]1CCC[C@H](O)C1 [Example B-85, 4-((1R,3)S-3-hydroxycyclohexylamino)-2-((S)-1,2,3,4-tetrahydronaphthalen-2-ylamino)pyrimidine-5-carboxamide]"
5,1000 to 10000 nM,"NC(=O)c1cnc(NCc2ccco2)nc1Nc1ccccc1 [Example B-65, 2-(furan-2-ylmethylamino)-4-(phenylamino)pyrimidine-5-carboxamide]"

# Same assay, conditions: Table 3; JNK1 IC50 activity level; read-out: Act. Level
row,IC50,SMILES
1,< 200 nM,"CO[C@H]1CC[C@H](Nc2ncc(C#N)c(N[C@@H]3CC[C@@H](C)C(O)C3)n2)CC1 (stereo partly drawn) [Example C-46, 4-((1R,3R,4R)-3-hydroxy-4-methylcyclohexylamino)-2-((1r,4R)-4-methoxycyclohexylamino) pyrimidine-5-carbonitrile]"

# Same assay, conditions: one or more of the JNK1 biochemical assays; read-out: Act. Level (JNK1 IC50 activity level)
row,IC50,SMILES
1,< 200 nM,"CC1(Nc2ncc(C(N)=O)c(NC3CCC(C)(C)C(O)C3)n2)CC1 (stereo not shown) [Example 431, 4-(3-hydroxy-4,4-dimethylcyclohexylamino)-2-(1-methylcyclopropylamino)pyrimidine-5-carboxamide]"
2,< 200 nM,"NC(=O)c1cnc(NC23CCC(F)(CC2)CC3)nc1N[C@@H]1CCC[C@H](O)C1 [Example 267, 2-(4-fluorobicyclo[2.2.2]octan-1-ylamino)-4-((1R,3S)-3-hydroxycyclohexylamino)pyrimidine-5-carboxamide]"
3,< 200 nM,"CC(C)(C)Nc1nc(N[C@H]2CCC[C@H](O)C2)ncc1C(N)=O [Example 305, 4-(tert-butylamino)-2-((1S,3S)-3-hydroxycyclohexylamino)pyrimidine-5-carboxamide]"
4,200 to 800 nM,"CC(C)(C)Nc1nc(NC2COC2)ncc1C(N)=O [Example 303, 4-(tert-butylamino)-2-(oxetan-3-ylamino)pyrimidine-5-carboxamide]"
5,< 200 nM,"CC1(C)CCC(Nc2nc(NC34CC(C3)C4)ncc2C(N)=O)CC1O (stereo not shown) [Example 432, 2-(bicyclo[1.1.1]pentan-1-ylamino)-4-(3-hydroxy-4,4-dimethylcyclohexylamino)pyrimidine-5-carboxamide]"
6,< 200 nM,"NC(=O)c1cnc(N[C@H]2CC[C@H](OC(F)F)CC2)nc1NC1CCC1 [Example 436, 4-(cyclobutylamino)-2-((1r,4r)-4-(difluoromethoxy)cyclohexylamino)pyrimidine-5-carboxamide]"
7,< 200 nM,"CC(C)(C)Nc1ncc(C(N)=O)c(N[C@@H]2CCC(C)(C)[C@H](O)C2)n1 [Example 324, 2-(tert-butylamino)-4-((1R,3R)-3-hydroxy-4,4-dimethylcyclohexylamino)pyrimidine-5-carboxamide]"
8,< 200 nM,"NC(=O)c1cnc(NC2CCOCC2)nc1N[C@@H]1CCC[C@H]1CO [Example 328, 4-((1R,2R)-2-(hydroxymethyl)cyclopentylamino)-2-(tetrahydro-2H-pyran-4-ylamino)pyrimidine-5-carboxamide]"
9,< 200 nM,"C[C@@H]1CC[C@@H](Nc2nc(NC3CCC3)ncc2C(N)=O)C[C@H]1O [Example 285, 2-(cyclobutylamino)-4-((1R,3R,4R)-3-hydroxy-4-methylcyclohexylamino)pyrimidine-5-carboxamide]"
10,< 200 nM,"CCO[C@H]1CC[C@H](Nc2ncc(C(N)=O)c(N[C@H](C)C(C)C)n2)CC1 [Example 290, 2-((1r,4R)-4-ethoxycyclohexylamino)-4-((R)-3-methylbutan-2-ylamino)pyrimidine-5-carboxamide]"
11,< 200 nM,"NC(=O)c1cnc(N[C@]23CC[C@@](O)(CC2)C3)nc1NC12CC(C1)C2 [Example 458, 4-(bicyclo[1.1.1]pentan-1-ylamino)-2-((1r,4r)-4-hydroxybicyclo[2.2.1]heptan-1-ylamino)pyrimidine-5-carboxamide]"
12,< 200 nM,"CC(C)(C)Nc1nc(NC23CCC(O)(CC2)C3)ncc1C(N)=O [Example 399, 4-(tert-butylamino)-2-(4-hydroxybicyclo[2.2.1]heptan-1-ylamino)pyrimidine-5-carboxamide]"
13,< 200 nM,"CC1CCC1Nc1nc(N[C@H]2CC[C@H](OCC(F)(F)F)CC2)ncc1C(N)=O (stereo partly shown) [Example 256, 4-(2-methylcyclobutylamino)-2-((1r,4r)-4-(2,2,2-trifluoroethoxy)cyclohexylamino)pyrimidine-5-carboxamide]"
14,< 200 nM,"CC(C)[C@H](C)Nc1ncc(C(N)=O)c(N[C@@H]2CC[C@@H](C)[C@H](O)C2)n1 [Example 471, 4-((1R,3R,4R)-3-hydroxy-4-methylcyclohexylamino)-2-((S)-3-methylbutan-2-ylamino)pyrimidine-5-carboxamide]"
15,< 200 nM,"CO[C@H]1CC[C@H](Nc2ncc(C(N)=O)c(NC3(C)CCCCC3)n2)CC1 [Example 358, 2-((1r,4r)-4-methoxycyclohexylamino)-4-(1-methylcyclohexylamino)pyrimidine-5-carboxamide]"
16,< 200 nM,"C[C@H]1C[C@@H](Nc2nc(N[C@H]3CC[C@H](O)CC3)ncc2C(N)=O)C1 [Example 327, 2-((1r,4r)-4-hydroxycyclohexylamino)-4-((1s,3s)-3-methylcyclobutylamino)pyrimidine-5-carboxamide]"
17,< 200 nM,"NC(=O)c1cnc(N[C@H]2CCCOC2)nc1NC1CCC1 [Example 448, (S)-4-(cyclobutylamino)-2-(tetrahydro-2H-pyran-3-ylamino)pyrimidine-5-carboxamide]"
18,< 200 nM,"CO[C@H]1CC[C@H](Nc2ncc(C(N)=O)c(NC3CCC3C)n2)CC1 (stereo partly shown) [Example 254, 2-((1r,4r)-4-methoxycyclohexylamino)-4-(2-methylcyclobutylamino)pyrimidine-5-carboxamide]"
19,< 200 nM,"CC(C)Nc1nc(NC23CCC(F)(CC2)CC3)ncc1C(N)=O [Example 253, 2-(4-fluorobicyclo[2.2.2]octan-1-ylamino)-4-(isopropylamino)pyrimidine-5-carboxamide]"
20,< 200 nM,"CC(C)(C)Nc1nc(N[C@H]2CC[C@](C)(O)CC2)ncc1C(N)=O [Example 302, 4-(tert-butylamino)-2-((1r,4r)-4-hydroxy-4-methylcyclohexylamino)pyrimidine-5-carboxamide]"
21,< 200 nM,"CO[C@H]1CC[C@H](Nc2ncc(C(N)=O)c(N[C@@H](C)C3CCC3)n2)CC1 [Example 295, 4-((S)-1-cyclobutylethylamino)-2-((1r,4S)-4-methoxycyclohexylamino)pyrimidine-5-carboxamide]"
22,< 200 nM,"C[C@H](Nc1ncc(C(N)=O)c(N[C@@H]2CC[C@@H](C)[C@H](O)C2)n1)C1CCC1 [Example 460, 2-((S)-1-cyclobutylethylamino)-4-((1R,3R,4R)-3-hydroxy-4-methylcyclohexylamino)pyrimidine-5-carboxamide]"
23,< 200 nM,"C[C@@H]1CC[C@@H](Nc2nc(NC3CC(F)(F)C3)ncc2C(N)=O)C[C@H]1O [Example 444, 2-(3,3-difluorocyclobutylamino)-4-((1R,3R,4R)-3-hydroxy-4-methylcyclohexylamino)pyrimidine-5-carboxamide]"

# Same assay, conditions: tested in one or more of the JNK1 biochemical assays; read-out: Act. Level (JNK1 biochemical assay IC50 activity level)
row,IC50,SMILES
1,< 200 nM,"CCC(=O)N1CCC(Nc2nc(N[C@H]3CC[C@H](O)CC3)ncc2C(N)=O)CC1 [Example A-90, 2-((1r,4r)-4-hydroxycyclohexylamino)-4-(1-propionylpiperidin-4-ylamino)pyrimidine-5-carboxamide]"
2,< 200 nM,"CO[C@H]1CC[C@H](Nc2ncc(C(N)=O)c(N[C@H]3CC[C@@](C)(O)CC3)n2)CC1 [Example A-69, 4-((1s,4s)-4-hydroxy-4-methylcyclohexylamino)-2-((1r,4r)-4-methoxycyclohexylamino)pyrimidine-5-carboxamide]"
3,< 200 nM,"CC[C@]1(O)CCC[C@@H](Nc2nc(N[C@H]3CC[C@H](OC)CC3)ncc2C(N)=O)C1 [Example A-161, 4-((1R,3S)-3-ethyl-3-hydroxycyclohexylamino)-2-((1r,4R)-4-methoxycyclohexylamino)pyrimidine-5-carboxamide]"
4,< 200 nM,"CC1(Nc2ncc(C(N)=O)c(N[C@@H]3CCC[C@H](O)C3)n2)CCOCC1 [Example A-151, 4-((1R,3S)-3-hydroxycyclohexylamino)-2-(4-methyltetrahydro-2H-pyran-4-ylamino)pyrimidine-5-carboxamide]"
5,< 200 nM,"CO[C@H]1CC[C@H](Nc2ncc(C(N)=O)c(N[C@H]3CC[C@H](CO)C3)n2)CC1 [Example A-98, 4-((1S,3S)-3-(hydroxymethyl)cyclopentylamino)-2-((1r,4S)-4-methoxycyclohexylamino)pyrimidine-5-carboxamide]"
6,200 to 800 nM,"CCO[C@H]1CC[C@@H](Nc2nc(NC3CCC3)ncc2C(N)=O)CC1 [Example A-135, 2-(cyclobutylamino)-4-((1s,4s)-4-ethoxycyclohexylamino)pyrimidine-5-carboxamide]"
7,< 200 nM,"CO[C@H]1CC[C@H](Nc2ncc(C(N)=O)c(N[C@H]3CCCC[C@@](C)(O)C3)n2)CC1 [Example A-185, 4-((1S,3R)-3-hydroxy-3-methylcycloheptylamino)-2-((1r,4S)-4-methoxycyclohexylamino)pyrimidine-5-carboxamide]"
8,< 200 nM,"CCO[C@H]1CC[C@H](Nc2ncc(C(N)=O)c(N[C@@H]3CCCOC3)n2)CC1 [Example A-72, 2-((1r,4R)-4-ethoxycyclohexylamino)-4-((R)-tetrahydro-2H-pyran-3-ylamino)pyrimidine-5-carboxamide]"
